{"source": "patent US20260216206A1", "about": "(MEDINCELL SA, priority 2023, published 2026)", "key": {"[1]": {"test": "Open-label SAD and MAD study, pharmacokinetics in healthy subjects and patients (Example 5)", "assay_type": "in vivo, humans", "details": "oral, 2.5 to 20 mg/day for 7 days, steady-state", "protocol": "(§1) This study was an open-label, SAD, and MAD study to evaluate the safety, tolerability, and PK of Formulation 1 in healthy subjects and patients with a diagnosis of schizophrenia or schizoaffective disorder. Healthy subjects received subtherapeutic Formulation 1 doses of up to 105 mg and patients received therapeutic doses of up to 566 mg. […] Subjects and patients who met screening eligibility were assigned to 1 of 8 active cohorts, or the Vehicle Cohort, as detailed in Table 5.1 below.\nAll cohorts included assessments of safety, tolerability, and intensive PK sampling.\nExcept for the starting dose of 70 mg, the study followed an adaptive design in which the decision to dose-escalate with Formulation 1 was based on a review of the PK and safety data from the preceding lower dose of Formulation 1.\nAn extensive PK collection scheme was applied following the last oral dose to fully characterize the PK at steady-state.\nIn multiple-dose cohorts, the 3 doses of Formulation 1 were administered on day 1, day 29 (week 4) and day 57 (week 8), respectively."}, "[2]": {"test": "Open-label SAD and MAD study, safety and tolerability in healthy subjects and patients (Example 5)", "assay_type": "in vivo, humans", "details": "washout period following oral olanzapine, 4/127", "protocol": "as §1\nSafety was assessed during the study by evaluating AEs, clinical laboratory test results (serum, hematology, urinalysis, and prolactin), vital signs measurements, ECG, physical examination, injection site pain, local tolerability, and leakage assessment. […]\nThe safety endpoints in this study included incidence of adverse events, changes from baseline in ECG parameters, selected clinical laboratory values (including prolactin) and vital signs, as well as changes in neurological and clinical symptom assessments (eg, PANSS, ESRS, AIMS, BARS, CGI-S, C-SSRS), and other safety measures that were evaluated throughout the study."}, "[3]": {"details": "after oral administration; cited from earlier work"}}, "data": [{"smiles": "Cc1cc2c(s1)Nc1ccccc1N=C2N1CCN(C)CC1", "note": "[olanzapine, 2-methyl-4-(4-methyl-1-piperazinyl)-10H-thieno[2,3-b][1,5]benzodiazepine]", "values": [{"measurement": "Systemic exposure (Cmax, AUCt,ss) versus dose", "setting": "[1]", "value": "dose-proportional"}, {"measurement": "Participants withdrawn due to adverse events", "setting": "[2]", "value": 3.1, "unit": "%"}, {"measurement": "Half life", "setting": "[3]", "value": "approximately 30 hours"}]}]}
